Patent publication US20030109051A1, “Spin trap for use in biological systems” (RANDOX LABORATORIES LTD, priority 2001, published 2003)
Entries after “also recorded” stand apart in the source; their conditions may differ.

Columns and labels:
[1] = Spin trapping of nitric oxide in whole blood using DMNB (ESR)
Experimental: This may be due to the possibility that any NO present or produced by live leucocytes in whole blood may react with thiol groups to form S-nitrosothiols and consequently be not trapped by DMNB. […] Lipopolysaccharide (LPS), which activates cell function, was also used in order to stimulate the cells to increase production of NO. As NEM may be toxic to cells, it was added i) at the same time as LPS and ii) 3.5 hours after the addition of LPS.
Peripheral blood was taken from a healthy volunteer into a vacutainer containing EDTA. After mixing, 1 ml of the blood was dispensed into each reaction vacutainer by a syringe, as quickly as possible (under 5 min).
DMNB (2) 0.5406 g was dissolved in 16 ml of deoxygenated toluene (by bubbling through nitrogen gas) to make a 0.25 M solution. 700 μl of the solution was added to each reaction mixture to make a final concentration of 0.1 M. A NO solution was made by bubbling nitric oxide gas through deoxygenated water for 45 min. The resulting NO solution (2 mM) was diluted with deoxygenated water to give 10, 35 and 50 nM solutions. An NEM solution (0. 3 M) was prepared by dissolving 0.0751 g of NEM in deoxygenated water. NEM solution (0.3 M), in amounts of 20, 40 and 80 μl, was added to the reaction mixtures to give a concentration, in 1 ml of blood, of 6, 12 and 24 mM. LPS (1 mg) was dissolved in 1 ml of PBS, 0.01 M, pH 7.4. The working stock solution is 100 μg/ml, diluted with the same buffer. The working stock solution of 10 μl was added to the reaction mixture to give a 1 μg/ml of blood. All transfer of reagents was done by gastight syringe through rubber stopper. The difference in volume due to the addition of NEM and LPS was compensated for by addition of deoxygenated water.
NO solution, blood without NEM nor LPS and PBS (0.01 M, pH 7.4) as controls were added to DMNB in toluene directly. NEM without LPS was added to blood immediately prior to addition of DMNB in toluene. When LPS was added to blood alone, the mixture of blood and LPS was incubated at room temperature for 3.5 hour before addition to DMNB in toluene. When both NEM and LPS were added to blood, NEM was either added to the blood together with LPS or added 3.5 hour later (Gust before addition of DMNB). When the DMNB in toluene was added, the reaction mixtures were incubated at room temperature on a roller for 2 hour to ensure effective extraction.
The reaction mixture was then analysed by ESR spectrometry (RE1X, Jeol). Individual results are shown in FIG. 6, and have been reassessed, for comparison purposes, in FIG. 7.

[2] = Reaction of nitric oxide with spin traps, ESR time course (chemical system); details: for trapping of nitric oxide (spin trap for nitric oxide): chemical system, spin trap in toluene, NO-saturated water
Experimental: ESR spectra were obtained using a prototype spectrometer (Jeol (U.K.) Ltd., Welwyn Garden City, England) equipped with a TED11 cylindrical cavity. Samples were analysed at room temperature in a WG-LC-11 quartz flat cell (Wilmad-Glass, Buena, N.J.). In general, the instrument parameters were: microwave frequency 9.2 GHz, microwave power 4 mW, centre field (CF) 336.7 mT, sweep width (SW)±5 mT, number of data points 4095, modulation frequency 100 kHz. For the spin traps reacted with nitric oxide: sweep time (ST) 150 s, time constraint (TC) 0.3 s, modulation width (MW) 0.2 mT. A JEOL ES-DM1 digital manganese oxide marker (0.03 mm of the glass tube inserted per unit on the dial setting) with a dial setting of 500 was used to ensure reproducibility between samples and to identify the position of the signals in the microwave field.
Samples of DBBNB, DMNB and TMNB were weighed into vacutainers, which were then evacuated Toluene and Tris-HCl buffer, 0.01 M, pH 7.4, were deoxygenated by bubbling with nitrogen gas for 15 min. Deoxygenated toluene was added to DBBNB, DMNB and TMNB, using a gas-tight syringe, to give a final concentration of 0.15 M in the reaction mixture.
The apparatus shown in FIG. 5 was flushed with nitrogen for 15 min. The vacutainer containing deionised water (4 ml) was then connected to the system and flushed with nitrogen for a further 15 min, to remove any oxygen present in the system, and therefore to prevent the formation of nitrogen dioxide. The NO gas was bubbled through the deionised water via the system for 45 min. The small amount of nitrogen dioxide present in the pressurised NO container was removed by bubbling through two bottles of 5M NaOH. The gas was then bubbled through a scrubbing bottle containing deionised water to remove any alkaline aerosol contamination. Any excess of NO after the deionised water step was bubbled through a scrubbing bottle containing 1M potassium permanganate/1M NaOH to prevent excess NO escaping from the fumehood. The concentration of NO in the resulting NO-saturated water was taken to be 2.0 mM. […]

Cc1cccc(C)c1N=O [DMNB, 2,6-Dimethylnitrosobenzene]
DMNB-NO adduct ESR signal intensity ([1]; LPS alone (1 μg/ml blood, 3.5 hour) before DMNB): did not Increase the signal intensity
DMNB-NO adduct ESR signal intensity ([1]; NEM (6, 12, 24 mM) added to blood before DMNB, increase proportional to NEM concentration): increase in signal intensity
DMNB-NO adduct ESR signal ([1]; both LPS and NEM added to blood): significant increase
DMNB-NO adduct ESR signal ([1]; peripheral blood incubated with DMNB in toluene, no NEM, no LPS): did not produce a detectable DMNB-NO adduct signal; also recorded: very little signal was detected
trapping of nitric oxide (spin trap for nitric oxide) [2]: shown to trap nitric oxide

O=Nc1c(Br)cc(S(=O)(=O)[O-])cc1Br.[Na+] [DBNBS, 3,5-dibromo-4-nitrosobenzene sulphonate, sodium salt, reference compound]
reaction time of DBNBS with NO ([2]; comparison value, conditions and source not given): approximately 50 hr

Cc1cc(C)c(N=O)c(C)c1 [TMNB, 2,4,6-Trimethylnitrosobenzene]
trapping of nitric oxide (spin trap for nitric oxide) [2]: shown to trap nitric oxide
